pIC50: −log10 of the molar value. Values joined by “and” are separate entries in the source; they are usually repeats but may differ in a detail not shown here. Identical values can stand only once. Like-named read-outs stand apart in the source and are kept apart here. Marks after values point to notes of the source that are not given here.
Columns and labels:
[1] = test system: mouse cerebellar granule neurons; experiment: Detection of neuronal apoptosis in mouse cerebellar granule neurons (low K+); assay type: cell-based; settings: Neuron, low (5 mM) K+, serum-free, 8 h, FIG. 1, read-out: IC50 for inhibition of neuronal apoptosis
Protocol: 1. Dissect out cerebella from 7-9 day old CD-I mouse pups; remove meninges.
2. Mince and dissociate with trypsin. Halt trypsinization with Dnase I and egg white trypsin inhibitor.
3. Individual cells are obtained by trituration with a pasteur pipet.
4. Cells were resuspended in cell culture media [(cMEM) E-MEM), 25 mM glucose, 10% fetal bovine serum, 2 mM glutamine, 100 μg/mL gentamycin, 25 mM KCl] and seeded at 1.2×10^5 cells per well onto 96-well microplates pre-coated with poly-D-lysine.
5. Cultures were incubated at 37° C. in 6% CO2, and were used for experiments on day 5-7 in vitro.
1. Replace media in column 1 with serum-free cMEM. Replace medium in columns 2-12 with serum-free cMEM with low (5 mM) K+.
2. Add drug titrations (serial diluted in DMSO; final 1% DMSO). Incubate 8 h @ 37° C.
3. Spin plate @ 1500 rpm 10 min., remove media and add lysis buffer.
4. Incubate 30 min. room temp. shaking.
5. Spin plate @ 1500 rpm 10 min., transfer supernatant to fresh plate. Store @ 4° C.
6. Transfer 5 μL supernatant and 45 μL EIA reagent to EIA strip plate (positive control standards in column 12); incubate @ room temp 2 h.
7. Wash strip plate with PBS using the plate washer.
8. Add 150 μL K-blue substrate (ELISA Technologies, Inc., Gainsville, Fla.); stop using 50 μL Red Stop. Read plate @ 650 nm.

[2] = test system: mesencephalic dopaminergic neurons; assay type: cell-based, rat; settings: for TH-immunoreactive cell survival, Mean: 48 hours
Source text: Effects of Jnk Inhibition on Dopaminergic Neuronal Survival, In Vitro Following Treatment with the Neurotoxin MPP^+.
This protocol produces a yield of dopaminergic neurons of around 0.5-1%; this is equivalent to roughly 1000-1500 dopaminergic cells in the well. 14 day gestation Sprague-Dawley rats were killed by stunning and exsanguination. Embryos were removed and decapitated, and the ventral mesencephalon dissected from the brain. The tissue was dissociated by trypsin (0.25% in Hank's BSS) digestion for 20 minutes. The trypsin was neutralized by addition of an excess of serum containing medium and the cells centrifuged at 1000 rpm for 10 minutes. The cell pellet was resuspended in DMEM/10% FCS, and a single cell suspension prepared by mechanical dissociation and passage through a 70 μm cell strainer. Trypan blue excluding cells were counted in a haemocytometer, and cells were plated into poly-D-lysine treated 8-well chamber slides at a density of 2×10^5 cells/well in Dulbecco's MEM supplemented with 10% FCS. Cultures were incubated for 24 hours at 37° C./5% CO2, then the medium was replaced with DMEM supplemented with SATO (final concentration; 4.3 mg/ml BSA, 0.77 μg/ml progesterone, 20 μg/ml putrescine, 0.49 μg/ml L-thyroxine, 0.048 μg/ml selenium and 0.42 μg/ml tri-iodo-thyronine).
Cultures were incubated for 5 days, then removed from the incubator and treated with compounds. Jnk inhibitors were added at concentrations ranging from 1 nM to 1 μM to 4 independent wells per concentration. 15 minutes following addition of Jnk inhibitors, MPP^+ was added directly to the wells to give a final concentration in the well of 10 μM. 4 wells were treated with MPP^+ 10 μM alone, and 4 left as untreated controls. zVAD-fmk 300 μM and Example 2 500 nM were used as positive controls. Once compounds and MPP^+ had been added, cultures were returned to the incubator at 37° C./5% CO2 for a further 48 hours prior to fixation and immunostaining.
To determine the numbers of surviving dopaminergic neurons, immunocytochemistry was carried out using a rabbit polyclonal antibody raised against TH. Non-specific binding sites were blocked using 10% normal goat serum in PBS, then primary antibody was added at 4° C. overnight. The next day, the cells were washed and treated with biotin conjugated goat anti-rabbit IgG for one hour, followed by peroxidase conjugated avidin biotin complex, both made up from the Vectastain® Elite ABC kit (Vector Laboratories, Burlingame, Calif.) according to the manufacturer's instructions. Staining was visualized using Vector™ SG (Vector Laboratories) insoluble peroxidase substrate according to the manufacturer's instructions. Following staining, the gaskets were removed from the chamber slides, and the slides mounted using aqueous mountant. Slides were blinded by another investigator before quantification of TH-immunoreactive cell survival. To determine TH-immunoreactive cell survival, cells were visualized using transmitted light on a Zeiss Axiovert inverted microscope using a 10X objective. Counts were made of all the TH-immunoreactive cells present in each well.
Data analysis was performed using a one way analysis of variance, followed by Dunnett's t-test. In each case the data refer to one representative experiment, with four independent replicates for each data point. […] Data shown are normalized to percentage of control response; all statistical analyses, however, were carried out on the cell counts.

CCCn1c(C2CCN(C)CC2)nc(-c2ccc(Cl)c(Cl)c2)c1-c1ccnc(NC2CC2)n1 [Example 2, Cyclopropyl-{4-[5-(3,4-dichlorophenyl)-2-[(1-methyl)-piperidin]-4-yl-3-propyl-3H-imidazol-4-yl]-pyrimidin-2-yl}amine]
pIC50 [1]: 7.00 | TH-immunoreactive cell survival, Mean ([2]; 1 nM + MPP+ 10 μM): 54.72 % of untreated control | TH-immunoreactive cell survival, Mean ([2]; 10 nM + MPP+ 10 μM): 60.77* % of untreated control | TH-immunoreactive cell survival, Mean ([2]; 100 nM + MPP+ 10 μM): 59.95* % of untreated control | TH-immunoreactive cell survival, Mean ([2]; 500 nM + MPP+ 10 μM): 72 % of untreated control and 72.41** % of untreated control | TH-immunoreactive cell survival, Mean ([2]; 1 μM + MPP+ 10 μM): 71.14** % of untreated control | TH-immunoreactive cell survival, Mean ([2]; 10 μM + MPP+ 10 μM): 32.08 % of untreated control | Non-specific toxicity ([2]; 10 μM treatment): Non-specific toxicity is observed | Concentrations giving significant increases in survival ([2]; MPP+ 10 μM, p<0.05): ≥ 10 nM
